Test results from DBAASP.
In brackets after ≈: the same amount, converted by molar mass.

Assays:
Assay in all cases: ≥ marks a high value that may be exact or a test limit, other limits are often not marked, values filed in µg/mL are converted to µM
[1] = system: Enterococcus faecalis E1478F
Staphylococcus aureus = system: Staphylococcus aureus
[2] = system: Staphylococcus aureus RN4220
[3] = system: Staphylococcus sciuri P254
Bacillus subtilis = system: Bacillus subtilis
[4] = system: Klebsiella pneumoniae 123132
[5] = system: Salmonella enterica subsp. enterica serovar Typhimurium ATCC 700408
Escherichia coli D31 = system: Escherichia coli D31
Escherichia coli BL21AI = system: Escherichia coli BL21AI
Escherichia coli 45849 = system: Escherichia coli 45849
[6] = system: Salmonella enterica subsp. enterica serovar Typhi S5
[7] = system: Klebsiella pneumoniae K6 ATCC 700603
[8] = system: Escherichia coli IFO 14237
[9] = system: Staphylococcus aureus IFO 12732
[10] = system: Bacillus subtilis IFO 3037
Escherichia coli ESBL = system: Escherichia coli ESBL
Escherichia coli ESBL 4 = system: Escherichia coli ESBL 4
[11] = system: Escherichia coli ATCC 43827
[12] = system: Escherichia coli ATCC 11775
[13] = system: Escherichia coli ATCC 35218
[14] = system: Pseudomonas aeruginosa ATCC 27853
[15] = system: Escherichia coli ATCC 25922
[16] = system: Lacticaseibacillus rhamnosus 1.0385
[17] = system: Staphylococcus aureus ATCC 43300
Escherichia coli UB1005 = system: Escherichia coli UB1005
[18] = system: Lacticaseibacillus rhamnosus 1.0911
[19] = system: Lactiplantibacillus plantarum 8014
[20] = system: Staphylococcus epidermidis ATCC 12228
[21] = system: Lacticaseibacillus rhamnosus 1.0386
[22] = system: Staphylococcus aureus ATCC 29213
[23] = system: Lacticaseibacillus rhamnosus 7469
[24] = system: Lacticaseibacillus rhamnosus 1.0925
Klebsiella pneumoniae = system: Klebsiella pneumoniae
[25] = system: Staphylococcus haemolyticus
Citrobacter freundii = system: Citrobacter freundii
[26] = system: Salmonella enterica subsp. enterica serovar Paratyphi A
[27] = system: Staphylococcus aureus ATCC 6538
[28] = system: Streptococcus dysgalactiae subsp. dysgalactiae ATCC 27957
[29] = system: Streptococcus agalactiae ATCC 27956
[30] = system: Enterococcus faecalis ATCC 29212
[31] = system: Salmonella enterica subsp. enterica serovar Typhimurium ATCC 14028
[32] = system: Bacillus cereus ATCC 10876
[33] = system: Streptococcus equi subsp. zooepidemicus ATCC 43079

`CC[C@H](C)[C@H](NC(=O)[C@H](CC(C)C)NC(=O)[C@@H]1CCCN1C(=O)[C@H](CC(C)C)NC(=O)[C@@H](N)Cc1ccccc1)C(=O)NCC(=O)NCC(=O)N[C@@H](CC(C)C)C(=O)N[C@@H](CC(C)C)C(=O)N[C@@H](CO)C(=O)N[C@@H](CCCCN)C(=O)N[C@@H](CC(C)C)C(=O)N[C@@H](CC(C)C)C(N)=O` [FLPLIGGLLSKLL] gave an MIC [1] of 2.83 µM (≈ 3.91 µg/mL), an MIC (Staphylococcus aureus) of 45.2 µM (≈ 62.5 µg/mL) and an MIC [2] of at least 45.2 µM. For the same compound, the MIC [3] was at least 45.2 µM and the MIC (Bacillus subtilis) was 2.83 µM (≈ 3.91 µg/mL).

`CC[C@H](C)[C@H](NC(=O)[C@H](Cc1ccc(O)cc1)NC(=O)[C@@H](NC(=O)[C@@H]1CCCN1C(=O)[C@H](CCCN=C(N)N)NC(=O)[C@H](CC(N)=O)NC(=O)[C@H](CC(N)=O)NC(=O)CN)C(C)C)C(=O)N1CCC[C@H]1C(=O)N[C@@H](CCC(N)=O)C(=O)N1CCC[C@H]1C(=O)N[C@@H](CCCN=C(N)N)C(=O)N1CCC[C@H]1C(=O)N1CCC[C@H]1C(=O)N[C@@H](Cc1cnc[nH]1)C(=O)N1CCC[C@H]1C(=O)N[C@@H](CCCN=C(N)N)C(=O)N[C@@H](CC(C)C)C(N)=O` [GNNRPVYIPQPRPPHPRL] was tested, and the MIC [4] was 7.59 µM (≈ 16 µg/mL), the MIC [5] was 0.0593 µM (≈ 0.125 µg/mL) and the MIC (Escherichia coli D31) was 0.474 µM (≈ 1 µg/mL). The MIC (Escherichia coli BL21AI) was 0.237 µM (≈ 0.5 µg/mL), the MIC (Escherichia coli 45849) was 0.237 µM (≈ 0.5 µg/mL) and the MIC [6] was 0.0593 µM (≈ 0.125 µg/mL). It also gave an MIC [7] of 7.59 µM (≈ 16 µg/mL).

Compound `CC[C@H](C)[C@H](N)C(=O)N[C@H](C(=O)NCC(=O)N[C@@H](CC(C)C)C(=O)N[C@H](C(=O)N[C@@H](CO)C(=O)N[C@@H](CCCCN)C(=O)NCC(=O)N[C@H](C(=O)N[C@H]1CSSC[C@@H](C(=O)N[C@@H](CCCCN)C(=O)N[C@@H](CCCCN)C(=O)N[C@H](C(=O)N[C@@H](CC(C)C)C(=O)N[C@@H](CCCCN)C(=O)N[C@@H](CCC(N)=O)C(N)=O)C(C)C)NC(=O)[C@H](C(C)C)NC(=O)[C@H]([C@@H](C)O)NC(=O)[C@H](CCCCN)NC(=O)[C@H](C(C)C)NC(=O)[C@H](CC(C)C)NC(=O)[C@H](C(C)C)NC1=O)[C@@H](C)O)C(C)C)[C@@H](C)CC` [IIGLVSKGTCVLVKTVCKKVLKQ] has an MIC [8] of 25 µM (≈ 61.4 µg/mL), an MIC [9] of 25 µM (≈ 61.4 µg/mL) and an MIC [10] of at least 50 µM.

`CC[C@H](C)[C@H](NC(=O)[C@H](Cc1ccc(O)cc1)NC(=O)[C@H](CCC(N)=O)NC(=O)[C@H](CC(C)C)NC(=O)[C@H](C)NC(=O)[C@H](CCCCN)NC(=O)[C@H](CCCCN)NC(=O)[C@H](CCSC)NC(=O)[C@H](CCCCN)NC(=O)[C@H](CCCCN)NC(=O)[C@@H](N)CCCCN)C(=O)N[C@@H](CCCCN)C(=O)N[C@@H](CC(C)C)C(=O)N[C@@H](CC(C)C)C(=O)N[C@@H](CCCCN)C(=O)N[C@@H](CCC(=O)O)C(N)=O` [KKKMKKALQYIKLLKE] gave an MIC (Escherichia coli ESBL) of at least 50 µM, an MIC (Escherichia coli ESBL 4) of at least 100 µM and an MIC [11] of 6 µM (≈ 11.9 µg/mL). The MIC [12] was at least 100 µM, the MIC [13] was 12.5 µM (≈ 24.9 µg/mL) and the MIC [14] was over 100 µM. The MIC [15] was 25 µM (≈ 49.7 µg/mL).

`NC(=O)C[C@H](NC(=O)[C@H](Cc1c[nH]c2ccccc12)NC(=O)[C@H](Cc1c[nH]c2ccccc12)NC(=O)[C@H](Cc1c[nH]c2ccccc12)NC(=O)[C@H](CC(N)=O)NC(=O)[C@H](Cc1c[nH]c2ccccc12)NC(=O)[C@H](CCCN=C(N)N)NC(=O)[C@@H](N)CCCN=C(N)N)C(=O)N[C@@H](Cc1c[nH]c2ccccc12)C(=O)N[C@@H](CCCN=C(N)N)C(=O)N[C@@H](CCCN=C(N)N)C(N)=O` [RRWNWWWNWRR] showed an MIC [16] of at least 64 µM, an MIC [17] of over 64 µM and an MIC (Escherichia coli UB1005) of at least 64 µM. The MIC [18] was at least 64 µM, the MIC [14] was over 64 µM and the MIC [19] was at least 64 µM. The MIC [15] was over 64 µM, the MIC [20] was over 64 µM and the MIC [21] was at least 64 µM. It also gave an MIC [22] of over 64 µM, an MIC [23] of at least 64 µM and an MIC [24] of at least 64 µM.

`CC(C)C[C@H](NC(=O)[C@H](CCCCN)NC(=O)[C@H](CC(C)C)NC(=O)[C@H](CCCCN)NC(=O)[C@H](CS)NC(=O)[C@H](CC(C)C)NC(=O)[C@H](Cc1c[nH]c2ccccc12)NC(=O)CNC(=O)[C@H](CCCCN)NC(=O)[C@H](CS)NC(=O)[C@@H]1CCCN1C(=O)[C@H](CCCCN)NC(=O)[C@H](CCCN=C(N)N)NC(=O)[C@H](CCCN=C(N)N)NC(=O)[C@H](CO)NC(=O)[C@@H](N)CO)C(=O)N[C@@H](CCCN=C(N)N)C(=O)O` [SSRRKPCKGWLCKLKLR] showed an MIC (Klebsiella pneumoniae) of 2.06 µM (≈ 4.24 µg/mL), an MIC [25] of 1.46 µM (≈ 3 µg/mL) and an MIC (Citrobacter freundii) of 2.91 µM (≈ 6 µg/mL). It also gave an MIC [26] of 5.83 µM (≈ 12 µg/mL).

`CC[C@H](C)[C@H](NC(=O)CNC(=O)[C@H](CCCN=C(N)N)NC(=O)[C@H](CCCCN)NC(=O)[C@H](CO)NC(=O)[C@H](CCCN=C(N)N)NC(=O)[C@H](CCCN=C(N)N)NC(=O)[C@@H](N)C(C)C)C(=O)N[C@@H](CCCCN)C(=O)N[C@H](C(=O)N1CCC[C@H]1C(=O)N[C@@H](CO)C(=O)N[C@@H](Cc1ccccc1)C(=O)N[C@H](C(=O)N[C@@H](CCCCN)C(=O)N[C@@H](CCCCN)C(=O)N[C@H](C(=O)N[C@@H](CC(C)C)C(=O)N[C@@H](CCCCN)C(=O)N[C@@H](CC(=O)O)C(=O)N[C@H](C(=O)N[C@H](C(=O)N[C@@H](CO)C(=O)N[C@@H](CCC(=O)O)C(=O)N[C@@H](CO)C(=O)N[C@H](C(=O)N[C@@H](CO)C(=O)O)[C@@H](C)CC)C(C)C)C(C)C)C(C)C)C(C)C)C(C)C` [VRRSKRGIKVPSFVKKVLKDVVSESIS] gave an MIC [27] of over 10.5 µM, an MIC [28] of 13.2 µM (≈ 40.2 µg/mL) and an MIC [29] of 13.2 µM (≈ 40.2 µg/mL). The MIC [30] was over 10.5 µM, the MIC [31] was over 10.5 µM and the MIC [32] was 10.5 µM (≈ 32 µg/mL). For the same compound, the MIC [14] was over 10.5 µM, the MIC [15] was 1.64 µM (≈ 5 µg/mL) and the MIC [33] was 13.2 µM (≈ 40.2 µg/mL).
